The source of these data is patent publication US8815882B2, “Pyrazole aminopyrimidine derivatives as LRRK2 modulators” (Genentech, Inc., priority 2010, dated 2014).

The first assay deals with T1, LRRK2 (Homo sapiens, UniProt Q5S007, G2019S).
T1 construct: purchased Invitrogen PV4882 (lot 567054A)
T1 sequence (Q5S007 whole entry G2019S): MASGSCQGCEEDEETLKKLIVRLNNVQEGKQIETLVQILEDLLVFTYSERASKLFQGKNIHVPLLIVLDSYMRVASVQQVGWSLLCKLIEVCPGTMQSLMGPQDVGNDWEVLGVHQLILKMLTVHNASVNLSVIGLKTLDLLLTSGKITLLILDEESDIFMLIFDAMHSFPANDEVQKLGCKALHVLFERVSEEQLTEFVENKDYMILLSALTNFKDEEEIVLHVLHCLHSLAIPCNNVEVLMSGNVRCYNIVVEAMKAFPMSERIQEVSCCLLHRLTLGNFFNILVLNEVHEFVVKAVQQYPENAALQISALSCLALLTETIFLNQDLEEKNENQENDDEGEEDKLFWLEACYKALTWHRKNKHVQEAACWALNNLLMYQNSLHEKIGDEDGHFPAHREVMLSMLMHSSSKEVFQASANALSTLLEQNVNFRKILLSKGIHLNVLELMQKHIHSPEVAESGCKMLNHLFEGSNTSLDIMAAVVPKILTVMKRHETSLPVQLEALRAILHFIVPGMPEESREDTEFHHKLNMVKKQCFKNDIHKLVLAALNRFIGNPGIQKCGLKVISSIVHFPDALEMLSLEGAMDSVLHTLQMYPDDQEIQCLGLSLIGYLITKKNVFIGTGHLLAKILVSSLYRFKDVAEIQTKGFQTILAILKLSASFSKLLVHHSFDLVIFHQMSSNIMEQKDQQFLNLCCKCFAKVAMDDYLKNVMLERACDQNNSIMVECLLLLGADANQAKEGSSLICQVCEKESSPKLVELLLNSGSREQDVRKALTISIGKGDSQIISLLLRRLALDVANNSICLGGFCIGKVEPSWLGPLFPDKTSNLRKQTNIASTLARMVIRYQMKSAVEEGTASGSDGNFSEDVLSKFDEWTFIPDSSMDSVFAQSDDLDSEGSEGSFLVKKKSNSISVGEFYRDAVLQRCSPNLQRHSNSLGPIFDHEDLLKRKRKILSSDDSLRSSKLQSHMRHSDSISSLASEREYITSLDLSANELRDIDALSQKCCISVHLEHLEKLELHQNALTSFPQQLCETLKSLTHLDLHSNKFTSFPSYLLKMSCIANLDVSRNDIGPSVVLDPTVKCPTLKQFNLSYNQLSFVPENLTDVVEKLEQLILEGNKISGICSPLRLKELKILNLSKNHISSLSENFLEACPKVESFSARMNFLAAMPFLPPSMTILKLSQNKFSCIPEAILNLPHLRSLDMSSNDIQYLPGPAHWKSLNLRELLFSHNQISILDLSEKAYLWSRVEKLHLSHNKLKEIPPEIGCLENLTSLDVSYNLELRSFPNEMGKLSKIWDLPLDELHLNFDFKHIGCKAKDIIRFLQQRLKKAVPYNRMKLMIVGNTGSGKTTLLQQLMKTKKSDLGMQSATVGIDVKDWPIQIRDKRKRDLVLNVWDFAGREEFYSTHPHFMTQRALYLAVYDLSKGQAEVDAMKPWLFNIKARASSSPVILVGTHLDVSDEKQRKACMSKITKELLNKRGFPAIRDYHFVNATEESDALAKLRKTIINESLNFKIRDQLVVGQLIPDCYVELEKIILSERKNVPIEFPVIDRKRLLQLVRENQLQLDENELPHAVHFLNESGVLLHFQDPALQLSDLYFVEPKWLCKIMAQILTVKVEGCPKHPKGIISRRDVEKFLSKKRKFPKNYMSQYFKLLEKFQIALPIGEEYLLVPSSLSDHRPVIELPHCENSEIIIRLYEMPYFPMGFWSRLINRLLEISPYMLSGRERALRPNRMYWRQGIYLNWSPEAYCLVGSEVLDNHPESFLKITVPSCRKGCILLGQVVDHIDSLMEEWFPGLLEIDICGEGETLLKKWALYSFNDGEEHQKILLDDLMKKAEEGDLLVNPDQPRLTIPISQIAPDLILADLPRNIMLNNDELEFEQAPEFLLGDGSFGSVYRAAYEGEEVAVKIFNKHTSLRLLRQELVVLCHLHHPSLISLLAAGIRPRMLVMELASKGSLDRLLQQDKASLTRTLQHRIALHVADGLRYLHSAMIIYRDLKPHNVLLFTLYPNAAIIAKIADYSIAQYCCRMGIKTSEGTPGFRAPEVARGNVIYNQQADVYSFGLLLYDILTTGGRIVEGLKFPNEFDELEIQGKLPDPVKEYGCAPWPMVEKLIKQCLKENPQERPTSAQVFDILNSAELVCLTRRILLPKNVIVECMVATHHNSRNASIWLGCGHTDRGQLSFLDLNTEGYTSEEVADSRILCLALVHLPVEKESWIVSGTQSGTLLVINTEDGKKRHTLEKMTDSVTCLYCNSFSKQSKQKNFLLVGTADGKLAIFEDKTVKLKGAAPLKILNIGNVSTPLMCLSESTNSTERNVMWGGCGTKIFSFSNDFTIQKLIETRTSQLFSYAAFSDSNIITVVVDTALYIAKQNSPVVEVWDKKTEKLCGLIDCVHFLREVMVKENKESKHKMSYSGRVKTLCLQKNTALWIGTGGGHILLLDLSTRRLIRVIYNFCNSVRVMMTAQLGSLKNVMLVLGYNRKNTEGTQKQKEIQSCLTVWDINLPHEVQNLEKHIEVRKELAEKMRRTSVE
Nature of the assay: In Vitro LRRK2 Assay (LabChip 3000, fluorescently-labeled peptide substrate, ATP). In kind it is biochemical. The note with it: Table 9; LRRK2 Ki (micromolar); read-out: LRRK2 Ki (KI). Put shortly: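 Read-out was LabChip capillary electrophoresis, resolving phospho- from non-phospho-peptide by fluorescence intensity. The kinase reaction combined enzyme, ATP, test compound and labeled peptide (4 μM working dilution) for 2 h in darkness before stop solution. Values were reported as Ki, from a tight-binding model with Et, S and Km, or as IC50 or percent inhibition.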
On to `CNc1nc(Nc2cnn(C3CCOCC3)c2C)ncc1C#N` [Example 361, 2-(5-methyl-1-(tetrahydro-2H-pyran-4-yl)-1H-pyrazol-4-ylamino)-4-(methylamino) pyrimidine-5-carbonitrile], for which the Ki was found to be 8.7 nM.
`CCNc1nc(Nc2cnn(C)c2C)ncc1C#N` [Example 385, 2-(1,5-Dimethyl-1H-pyrazol-4-ylamino)-4-ethylamino-pyrimidine-5-carbonitrile]: the Ki came to 12.7 nM.

Still in this assay, the particulars now being: Table 10; LRRK2 Ki (micromolar); read-out: LRRK2 Ki (KI).
Take `CNc1nc(Nc2cn([C@H](C)C(=O)N(C)C)nc2C)ncc1C(F)(F)F` [Example 404, (R)-N,N-dimethyl-2-(3-methyl-4-(4-(methylamino)-5-(trifluoromethyl)pyrimidin-2-ylamino)-1H-pyrazol-1-yl)propanamide]: the Ki was 18 nM.
Same read-out and setting: next, `CNc1nc(Nc2cn(C(C)(C)C#N)nc2C)ncc1Cl` [Example 417, 2-(4-(5-chloro-4-(methylamino)pyrimidin-2-ylamino)-3-methyl-1H-pyrazol-1-yl)-2-methylpropanenitrile]: 2.1 nM; `CCNc1nc(Nc2cn(C(C)(C)C(=O)NC)nc2C)ncc1C(F)(F)F` [Example 453, 2-[4-(4-Ethylamino-5-trifluoromethyl-pyrimidin-2-ylamino)-3-methyl-pyrazol-1-yl]-N-methyl-isobutyramide]: 9.2 nM.
For `CCNc1nc(Nc2cn(C(C)(C)C#N)nc2C)ncc1C(F)(F)F` [Example 451, 2-[4-(4-Ethylamino-5-trifluoromethyl-pyrimidin-2-ylamino)-3-methyl-pyrazol-1-yl]-2-methyl-propionitrile], the Ki worked out at 0.3 nM.
Still for that read-out and setting: with `CNc1nc(Nc2cn(C3(C#N)CC3)nc2C)ncc1C(F)(F)F` [Example 402, 1-(3-methyl-4-(4-(methylamino)-5-(trifluoromethyl)pyrimidin-2-ylamino)-1H-pyrazol-1-yl)cyclopropane-carbonitrile] the figure was 3.7 nM.

The same assay, now with this note: read-out: LRRK2 Ki (KI), Table 7.
For the molecule `CCNc1nc(Nc2ccn(C)n2)ncc1C(F)(F)F` [Example 61, N^4-ethyl-N^2-(1-methyl-1H-pyrazol-3-yl)-5-(trifluoromethyl) pyrimidine-2,4-diamine], the Ki was determined as 4.6 nM.
On to `COc1nc(Nc2cnn(-c3ccccc3)c2C)ncc1C(F)(F)F` [Example 78, (4-Methoxy-5-trifluoromethyl-pyrimidin-2-yl)-(5-methyl-1-phenyl-1H-pyrazol-4-yl)-amine], for which the inhibitory constant (Ki) came to 38.1 nM.
With `COc1nc(Nc2cnn(C3CCOCC3)c2C)ncc1Cl` [Example 80, (5-Chloro-4-methoxy-pyrimidin-2-yl)-[5-methyl-1-(tetrahydro-pyran-4-yl)-1H-pyrazol-4-yl]-amine], the Ki was found to be 66.3 nM.

Still in this assay, the particulars now being: read-out: LRRK2 Ki (KI), Table 8.
Turning to `CNc1nc(Nc2cnn(C(F)F)c2C)ncc1C(F)(F)F` [Example 106, N2-(1-(difluoromethyl)-5-methyl-1H-pyrazol-4-yl)-N4-methyl-5-(trifluoromethyl) pyrimidine-2,4-diamine], the Ki amounted to 1.9 nM.
Consider `CNc1nc(Nc2cnn(-c3ccc(Cl)cc3)c2C)ncc1C(F)(F)F` [Example 123, N2-(1-(4-chlorophenyl)-5-methyl-1H-pyrazol-4-yl)-N4-methyl-5-(trifluoromethyl) pyrimidine-2,4-diamine], for which the Ki was 0.3 nM.
As for `CNc1nc(Nc2cnn(C3CCCC3O)c2C)ncc1C(F)(F)F` (stereo not drawn) [Example 334, 2-[5-Methyl-4-(4-methylamino-5-trifluoromethyl-pyrimidin-2-ylamino)-pyrazol-1-yl]-cyclopentanol], the Ki is 6.3 nM.
The same measure, in the same setting: with `CNc1nc(Nc2cn(C3CN(CC(F)(F)F)C3)nc2C)ncc1C(F)(F)F` [Example 202, N4-methyl-N2-(3-methyl-1-(1-(2,2,2-trifluoroethyl)azetidin-3-yl)-1H-pyrazol-4-yl)-5-(trifluoromethyl) pyrimidine-2,4-diamine] the figure was 34 nM; with `CNc1nc(Nc2cn(C3CCN(C4COC4)CC3F)nc2C)ncc1C(F)(F)F` (stereo not drawn) [Example 199, N2-(1-(3-fluoro-1-(oxetan-3-yl)piperidin-4-yl)-3-methyl-1H-pyrazol-4-yl)-N4-methyl-5-(trifluoromethyl) pyrimidine-2,4-diamine], 2.2 nM; with `CCNc1nc(Nc2cn(C3COC3)nc2C)ncc1Br` [Example 104, 5-bromo-N4-ethyl-N2-(3-methyl-1-(oxetan-3-yl)-1H-pyrazol-4-yl)pyrimidine-2,4-diamine], 1.4 nM.
Still for that read-out and setting: with `CCCn1cc(Nc2ncc(C(F)(F)F)c(NC)n2)c(C)n1` [Example 120, N4-methyl-N2-(3-methyl-1-propyl-1H-pyrazol-4-yl)-5-(trifluoromethyl) pyrimidine-2,4-diamine] the figure was 0.6 nM; with `CNc1nc(Nc2cn(CC3(C)COC3)nc2C)ncc1Cl` [Example 114, 5-chloro-N4-methyl-N2-(3-methyl-1-((3-methyloxetan-3-yl)methyl)-1H-pyrazol-4-yl)pyrimidine-2,4-diamine], 19 nM; with `CNc1nc(Nc2cnn(CC(F)(F)F)c2C)ncc1Br` [Example 96, 5-bromo-N4-methyl-N2-(5-methyl-1-(2,2,2-trifluoroethyl)-1H-pyrazol-4-yl)pyrimidine-2,4-diamine], 1.1 nM.
Same read-out and setting: next, `CNc1nc(Nc2cnn(S(=O)(=O)C(C)C)c2C)ncc1C(F)(F)F` [Example 218, N2-(1-(isopropylsulfonyl)-5-methyl-1H-pyrazol-4-yl)-N4-methyl-5-(trifluoromethyl) pyrimidine-2,4-diamine]: 8.1 nM; `CCCCn1ncc(Nc2ncc(C(F)(F)F)c(NC)n2)c1C` [Example 127, N2-(1-butyl-5-methyl-1H-pyrazol-4-yl)-N4-methyl-5-(trifluoromethyl) pyrimidine-2,4-diamine]: 0.3 nM.
On to `CNc1nc(Nc2[nH]ncc2C)ncc1C(F)(F)F` [Example 206, N4-methyl-N2-(4-methyl-1H-pyrazol-5-yl)-5-(trifluoromethyl) pyrimidine-2,4-diamine], for which the Ki was 232 nM.
Regarding `CNc1nc(Nc2cnn(Cc3cccc(C)n3)c2C)ncc1C(F)(F)F` [Example 314, N4-Methyl-N2-[5-methyl-1-(6-methyl-pyridin-2-ylmethyl)-1H-pyrazol-4-yl]-5-trifluoromethyl-pyrimidine-2,4-diamine], the Ki turned out to be 1.5 nM.
As for `CCNc1nc(Nc2cnn(CC(C)(C)C#N)c2Cl)ncc1C(F)(F)F` [Example 318, 3-[5-Chloro-4-(4-ethylamino-5-trifluoromethyl-pyrimidin-2-ylamino)-pyrazol-1-yl]-2,2-dimethyl-propionitrile], the Ki turned out to be 0.7 nM.
In the case of `CNc1nc(Nc2cn(CC(O)C(C)C)nc2C)ncc1C(F)(F)F` (stereo not drawn) [Example 321, 3-Methyl-1-[3-methyl-4-(4-methylamino-5-trifluoromethyl-pyrimidin-2-ylamino)-pyrazol-1-yl]-butan-2-ol], the Ki is 10.8 nM.
Same read-out and setting: next, `CCNc1nc(Nc2cnn([C@H]3CCCN(C)C3)c2C)ncc1C(F)(F)F` [Example 311, N4-Ethyl-N2-[5-methyl-1-((S)-1-methyl-piperidin-3-yl)-1H-pyrazol-4-yl]-5-trifluoromethyl-pyrimidine-2,4-diamine]: 1.2 nM.
Still for that read-out and setting: next, `CCNc1nc(Nc2cnn(-c3ccc(S(=O)(=O)C4CC4)cc3)c2C)ncc1C(F)(F)F` [Example 174, N2-(1-(4-(cyclopropyl-sulfonyl)phenyl)-5-methyl-1H-pyrazol-4-yl)-N4-ethyl-5-(trifluoromethyl) pyrimidine-2,4-diamine]: 1.1 nM.
On the same count and under the same terms, next, `CNc1nc(Nc2cn(-c3cc(F)cc(F)c3)nc2C)ncc1Br` [Example 116, 5-bromo-N2-(1-(3,5-difluorophenyl)-3-methyl-1H-pyrazol-4-yl)-N4-methylpyrimidine-2,4-diamine]: 0.3 nM; `CNc1nc(Nc2cn(C)nc2C(C)C)ncc1C(F)(F)F` [Example 227, N2-(3-isopropyl-1-methyl-1H-pyrazol-4-yl)-N4-methyl-5-(trifluoromethyl) pyrimidine-2,4-diamine]: 69 nM.
For `CNc1nc(Nc2cn(C[C@@H](C)OC)nc2C)ncc1C(F)(F)F` [Example 270, N2-[1-((R)-2-Methoxy-propyl)-3-methyl-1H-pyrazol-4-yl]-N4-methyl-5-trifluoromethyl-pyrimidine-2,4-diamine], the inhibition constant Ki was determined as 17 nM.
Consider `CNc1nc(Nc2cn(CC3CC3)nc2C)ncc1C(F)(F)F` [Example 166, N2-(1-(cyclopropyl-methyl)-3-methyl-1H-pyrazol-4-yl)-N4-methyl-5-(trifluoromethyl) pyrimidine-2,4-diamine], for which the Ki was found to be 4.5 nM.
On the same count and under the same terms, next, `CNc1nc(Nc2cnn(C3CCN(C4COC4)CC3F)c2Cl)ncc1C(F)(F)F` (stereo not drawn) [Example 305, N2-[5-Chloro-1-(3-fluoro-1-oxetan-3-yl-piperidin-4-yl)-1H-pyrazol-4-yl]-N4-methyl-5-trifluoromethyl-pyrimidine-2,4-diamine]: 2.2 nM; `CCNc1nc(Nc2cn(CCOC)nc2C)ncc1C(F)(F)F` [Example 294, N4-Ethyl-N2-[1-(2-methoxy-ethyl)-3-methyl-1H-pyrazol-4-yl]-5-trifluoromethyl-pyrimidine-2,4-diamine]: 1.1 nM.
With `CNc1nc(Nc2cn(S(C)(=O)=O)nc2C)ncc1C(F)(F)F` [Example 102, N4-methyl-N2-(3-methyl-1-(methylsulfonyl)-1H-pyrazol-4-yl)-5-(trifluoromethyl) pyrimidine-2,4-diamine], the Ki was 2.9 nM.
In the case of `CCC(C)S(=O)(=O)n1ncc(Nc2ncc(C(F)(F)F)c(NC)n2)c1C` (stereo not drawn) [Example 219, N2-(1-(sec-butylsulfonyl)-5-methyl-1H-pyrazol-4-yl)-N4-methyl-5-(trifluoromethyl) pyrimidine-2,4-diamine], the Ki stood at 6.7 nM.

Staying with this assay, now noted: read-out: LRRK2 Ki given in the example.
On to `CNc1nc(Nc2cnn(C)c2C)ncc1Br` [Example 89, 5-Bromo-N^2-(1,5-dimethyl-1H-pyrazol-4-yl)-N^4-methylpyrimidine-2,4-diamine], for which the Ki worked out at 17 nM.
